Measured values reported in patent US20230272390A1, “COMPOSITIONS AND METHODS FOR HEMOGLOBIN PRODUCTION” (THE CHILDREN'S HOSPITAL OF PHILADELPHIA, priority 2020, published 2023).

Columns and labels:
[1] = tested on: ZNF410; assay: RNA-seq in ZNF410 depleted differentiated HUDEP-2 cells; type: cell-based, human; conditions: vs non-targeting sgRNA
Description: HUDEP-2 cells were cultured and differentiated as described (Kurita, et al. (2013) PLoS One 8:e59890). Briefly, StemSpan™ Serum-Free Expansion Medium (SFEM) supplemented with 50 ng/ml human stem cell factor (SCF), 10 μM dexamethasone, 1 μg/ml doxycycline, 3 IU/ml erythropoietin and 1% penicillin/streptomycin was utilized for routine cell maintenance. Cell density was kept at 0.1-1×10^6/ml. HUDEP-2 cells were differentiated for 6-7 days in IMDM supplemented with 50 ng/ml human SCF, 3 IU/ml erythropoietin, 2.5% fetal bovine serum, 250 μg/ml holo-transferrin, 10 ng/ml heparin, 10 μg/ml insulin, 1 μg/ml doxycycline and 1% penicillin/streptomycin.
Lentivirus was produced as described (Grevet, et al. (2018) Science 361:285-290). Briefly, 10-20 μg of expression vectors, 5-10 μg of pVSVG (pMD2.G) and 7.5-15 μg of psPAX2 package plasmids, and 80 μl of 1 mg/ml polyethylenimine (PEI) were mixed, incubated for 15-20 minutes, and added to HEK293T cells grown in 10 cm plates to above 90% confluence. Media were replaced 6-8 hours post transfection, virus was collected 24 hours and 48 hours post-transfection and pooled. For infection, virus-containing supernatant was mixed with the indicated cell lines with 8 μg/ml polybrene and 10 mM HEPES, and then spun at 2250 rpm for 1.5 hours at room temperature. Infected HUDEP-2 cells were selected for mCherry+ or GFP+ cell sorting at 48 hours post-infection.
(§1) Total RNAs were purified as described above. Sequencing libraries were then constructed using 100 ng of purified total RNA using the ScriptSeg™ Complete Kit (Illumina cat #BHMR1224) according to manufacturer's protocol. RNA was subjected to rRNA depletion using the Ribo-Zero™ removal reagents and fragmented. First strand cDNA was synthesized using a 5′ tagged random hexamer, and reversely transcribed, followed by annealing of a 5′ tagged, 3′-end blocked terminal-tagged oligo for second strand synthesis. The Di-tagged cDNA fragments were purified, barcoded, and PCR-amplified for 15 cycles.
(§2) The size and quality of each library were evaluated by Bioanalyzer 2100 (Agilent Technologies, Santa Clara, Calif.), and quantified using qPCR. Libraries were sequenced in paired-end mode on a NextSeq 500 instrument to generate 2×76 bp reads using Illumina-supplied kits. The sequence reads were processed using the ENCODE3 long RNA-seq pipeline (encodeproject.org/pipelines/ENCPL002LPE/). In brief, reads were mapped to the human genome (hg38 assembly) using STAR, followed by RSEM for gene quantifications.
(§3) The normalized FPKM (fragments per kilo base per million mapped reads) for each gene was averaged in 2 replicates and then filtered to keep those with average FPKM at least 10 in both HUDEP-2 cells and primary erythroblasts, resulting in ˜5000 high abundant genes each cell type for further analysis. Log2 fold-change was calculated from FPKM of sgRNA targeting ZNF410 compared to control sgRNA (non-targeting sgRNA) using the DESeq2 method, and top changed genes were selected with fold-change at least 1.5 and p-value<0.05. Commonly changed genes in both independent sgRNAs were considered to be significant. Scatter plots were generated using ggplot2 in RStudio for all expressed genes (FPKM>5).
(§4) ZNF410 functions as a transcriptional activator (Benanti, et al. (2002) Mol. Cell Biol., 22:7385-7397). To understand how ZNF410 regulates the transcription of γ-globin genes, RNA-seq experiments were performed in ZNF410 depleted differentiated HUDEP-2 cells and primary human erythroblasts.

[2] = tested on: ZNF410; assay: RNA-seq in ZNF410 depleted primary human erythroblasts (CD34+ HSPC derived); type: cell-based; conditions: primary CD34+ cells (erythroblasts), vs non-targeting sgRNA
Description: Primary human CD34+ HSPCs from mobilized peripheral blood were purchased from the Fred Hutchinson Cancer Research Center. Human CD34+ HSPCs were differentiated using a three-phase culture system as described (Grevet, et al. (2018) Science 361:285-290). Briefly, IMDM supplemented with 3 IU/ml erythropoietin, 2.5% human male AB serum, 10 ng/ml heparin, and 10 μg/ml insulin was used as base medium. For phase I medium, 100 ng/ml human SCF, 5 ng/ml IL-3, and 250 μg/ml holo-transferrin were supplemented. For phase II medium, 100 ng/ml human SCF and 250 μg/ml holo-transferrin were added. For phase III medium, 1.25 mg/ml holo-transferrin was supplemented.
Commercial sgRNAs were purchased from IDT (Coralville, Iowa) or Synthego (Menlo Park, Calif.). To assemble the RNP complexes, 100 pmol sgRNA and 50 pmol SpCas9 protein (from IDT) were incubated at room temperature for 15 minutes. CD34+ HSPCs (50k-100k) at Day 3-4 of phase I culture were electroporated using P3 Primary Cell 4D Nucleofector™ X Kit (from Lonza) with the program DZ100 (Bak, et al. (2018) Nat. Protoc., 13:358-376).
as §1, §2, §3, §4

Substance	log2(sgRNA/NT) AC092490.1 transcript [1]	log2(sgRNA/NT) AC104389.5 transcript [1]	log2(sgRNA/NT) AK1 transcript [1]	log2(sgRNA/NT) CD63 transcript [1]	log2(sgRNA/NT) CHD4 transcript [1]	log2(sgRNA/NT) CKB transcript [1]	log2(sgRNA/NT) FOS transcript [1]	log2(sgRNA/NT) H1F0 transcript [1]	log2(sgRNA/NT) HBG1/2 transcript [1]	log2(sgRNA/NT) PRG2 transcript [1]	log2(sgRNA/NT) S100A10 transcript [1]	log2(sgRNA/NT) SCARNA3 transcript [1]	log2(sgRNA/NT) TUBA1A transcript [1]	log2(sgRNA/NT) AC092490.1 transcript [2]	log2(sgRNA/NT) ACSL6 transcript [2]	log2(sgRNA/NT) CBX6 transcript [2]	log2(sgRNA/NT) CHD4 transcript [2]	log2(sgRNA/NT) HBG1/2 transcript [2]	log2(sgRNA/NT) HSPB1 transcript [2]	log2(sgRNA/NT) PAFAH1B3 transcript [2]	further results
ZNF410 sgRNA#1: sgRNA targeting the DNA-binding domain of ZNF410, GAACCACCAGATGTTTTCGG (SEQ ID NO: 4) (listed as DNA, chemistry not given here)	−1.45	3.95	1.99	1.90	−0.99	2.44	−1.32	2.41	4.26	2.09	−1.60	−0.89	−1.06	−1.50	−1.67	−1.56	−0.93	1.47	2.01	1.35	log2(sgRNA/NT) ATF5 transcript [1]: 1.65; log2(sgRNA/NT) GLIPR2 transcript [1]: −1.14; log2(sgRNA/NT) MIF transcript [1]: 1.92; log2(sgRNA/NT) PPP4R1 transcript [1]: −0.95; log2(sgRNA/NT) RF00019 transcript [1]: −2.43; log2(sgRNA/NT) TMCC2 transcript [1]: −1.18; log2(sgRNA/NT) TMSB10 transcript [1]: 1.79; log2(sgRNA/NT) COA4 transcript [2]: 1.30; log2(sgRNA/NT) DYNLT1 transcript [2]: 1.27; log2(sgRNA/NT) GPCPD1 transcript [2]: −0.93; log2(sgRNA/NT) ISOC2 transcript [2]: 1.34; log2(sgRNA/NT) PKN1 transcript [2]: 1.32; log2(sgRNA/NT) PRDX5 transcript [2]: −1.00; log2(sgRNA/NT) RPS19BP1 transcript [2]: 1.42; log2(sgRNA/NT) SELENOW transcript [2]: 1.55; log2(sgRNA/NT) SMOX transcript [2]: −1.45; log2(sgRNA/NT) SPC25 transcript [2]: −0.93; log2(sgRNA/NT) STUB1 transcript [2]: 1.46; log2(sgRNA/NT) TMCC2 transcript [2]: −2.01; log2(sgRNA/NT) ZNF410 transcript [2]: −1.49
ZNF410 sgRNA#2: sgRNA targeting the DNA-binding domain of ZNF410, CTCATCAGTGCCAAGTCTGT (SEQ ID NO: 5) (listed as DNA, chemistry not given here)	−1.50	4.01	1.83	1.75	−1.23	2.24	−1.88	2.13	4.28	2.17	−1.59	−1.30	−1.07	−1.47	−1.47	−2.01	−1.08	1.75	2.15	1.40	log2(sgRNA/NT) PLA2G6 transcript [1]: −1.01; log2(sgRNA/NT) RNU5B-1 transcript [1]: 3.60; log2(sgRNA/NT) RNU5E-1 transcript [1]: 1.82; log2(sgRNA/NT) RNU6-11P transcript [1]: −1.11; log2(sgRNA/NT) SCARNA18 transcript [1]: −1.20; log2(sgRNA/NT) SLC2A3P1 transcript [1]: −1.49; log2(sgRNA/NT) SNORD97 transcript [1]: 2.29; log2(sgRNA/NT) AC104389.5 transcript [2]: 1.43; log2(sgRNA/NT) AC130456.3 transcript [2]: −2.03; log2(sgRNA/NT) CDKN1A transcript [2]: 1.38; log2(sgRNA/NT) IFI27 transcript [2]: 1.78; log2(sgRNA/NT) KDM7A transcript [2]: −1.32; log2(sgRNA/NT) PKN1 transcript [2]: 1.43; log2(sgRNA/NT) PRDX5 transcript [2]: −1.09; log2(sgRNA/NT) RN7SL471P transcript [2]: 1.60; log2(sgRNA/NT) SELENOW transcript [2]: 1.67; log2(sgRNA/NT) SMOX transcript [2]: −1.24; log2(sgRNA/NT) STUB1 transcript [2]: 1.40; log2(sgRNA/NT) TMCC2 transcript [2]: −1.69; log2(sgRNA/NT) ZNF410 transcript [2]: −1.24
